Test results as given in US10894777B2, “TG2 inhibitor piperazine compounds and uses thereof” (UNIVERSITY OF OTTAWA, priority 2016, dated 2021).

Legend:
SCC-13 cells = assay: Trypan Blue viability assay, SCC-13 spheroids; assay type: cell-based, human; settings: 0-20 μM, 0-72 hours
Description: Trypan Blue viability assay. SCC-13 cells were grown as spheroids in six well cluster dishes in spheroid medium for 8 days and then treated with 0-20 μM NC9. At 0, 24, 48, and 72 hours post-NC9 treatment, spheroids were counted, and all cells in the well were collected to prepare a single cell suspension in Hank's Balanced Salt Solution. Trypan Blue solution (0.5 mL, 0.4%) was added to a 15 mL conical tube with 0.3 mL of Hank's Balanced Salt Solution and 0.2 ml of cell suspension. After 10 min, 8 μL of the mixture was transferred to a hemocytometer to count viable and total cell number.

U251 cells = assay: Agarose colony formation assay, U251 cells; assay type: cell-based, human; settings: 10 μM, 2 weeks
Description: (§1) Agarose colony formation assay. Agarose colony formation assay was conducted as described (Horman, S. R. et al., J. Biomol. Screen 18(10):1298-308, 2013; Zhang, K. et al., Tumour Biol. 35(3):2537-48, 2014) using 6-well plates and 5,000 cells in each well. 10 μM NC9 or DMSO was added to every layer at the start of the experiments. 2 mL liquid MEM containing 10 μM NC9 or DMSO was used to cover the agarose and it was changed 3 times a week. Colony growth was monitored every day and at the end of 10-15 days, the colonies were fixed with 4% paraformaldehyde, stained with 0.005% crystal violet, washed with PBS twice and 40 random pictures were taken from each treatment group. A person blinded for the treatments measured the area of the colonies using ImageJ program and the volumes were calculated from the area data under the assumption that the colonies are perfect spheres. The volumes were used to compare the effect of NC9 on colony growth.

[1] = tested on: shRNA-transduced U87, U251 and T98G cells; assay: Agarose colony formation assay, TG2 shRNA-transduced cells; assay type: cell-based, human; settings: 10 μM, 2 weeks
Description: Lentiviral vectors. Lentiviral knockdown vectors were prepared and used as previously described (Gundemir, S. et al., PLoS ONE 4(7):e6123, 2009; Barde, I. et al., Curr. Protoc. Neurosci. Chapter 4, Unit 4.21, 1-23, 2010).
as §1

[2] = tested on: ECS cells (derived from SCC-13) tumors; assay: Tumor xenograft growth assay, SCC-13-derived ECS cells in NSG mice; assay type: in vivo
Description: In (A), SCC13-Control-shRNA and SCC13-TG2-shRNA2 cells were double electroporated with empty vector (EV) or YAP(S127A)-encoding vector and at 48 h post-electroporation lysates were collected for immunoblot. In (B), (C), and (D), the indicated cell lines were electroporated with EV or YAP(S127A)-encoding vector and then plated for spheroid formation, invasion and migration assay. In (E) and (F), ECS cells (100,000 cells derived from SCC-13) were injected into each front flank in NSG mice. At 1 d post injection, the mice were treated with 0 or 20 mg NC9 per kg body weight delivered in 200 μl by gavage three times per week. Images represent appearance and size of typical control and NC9 treated tumors harvested on week four. In (G), tumors were harvested at 4 wk and extracts were prepared for assay of indicated proteins. Blots from two representative tumors are shown. In (H), a proposed TG2 signaling scheme is shown. TG2 interacts with α6/β4 integrin to enhance integrin (FAK/Src) signaling which increases PI3K/PDK1 activity and PDK suppresses activity in the Hippo signaling cascade (LATS1). This leads to reduced LATS1 phosphorylation of YAP1 which then interacts with and stabilizes ΔNp63α. […]
Tumor xenograft growth assay. […] Tumor growth was monitored by measuring tumor diameter and calculating tumor volume=4/3π×(diameter/2)^3 (Streit, M. et al., Am. J. Pathol. 155:441-52, 1999). […]

TG3a = target: T1, TG3a (Homo sapiens, UniProt Q08188); assay: Fluorescence isopeptidase activity assay (A101 probe), TG3a; assay type: biochemical
T1 construct: purchased Zedira
T1 sequence (Q08188 2-467 limits assumed): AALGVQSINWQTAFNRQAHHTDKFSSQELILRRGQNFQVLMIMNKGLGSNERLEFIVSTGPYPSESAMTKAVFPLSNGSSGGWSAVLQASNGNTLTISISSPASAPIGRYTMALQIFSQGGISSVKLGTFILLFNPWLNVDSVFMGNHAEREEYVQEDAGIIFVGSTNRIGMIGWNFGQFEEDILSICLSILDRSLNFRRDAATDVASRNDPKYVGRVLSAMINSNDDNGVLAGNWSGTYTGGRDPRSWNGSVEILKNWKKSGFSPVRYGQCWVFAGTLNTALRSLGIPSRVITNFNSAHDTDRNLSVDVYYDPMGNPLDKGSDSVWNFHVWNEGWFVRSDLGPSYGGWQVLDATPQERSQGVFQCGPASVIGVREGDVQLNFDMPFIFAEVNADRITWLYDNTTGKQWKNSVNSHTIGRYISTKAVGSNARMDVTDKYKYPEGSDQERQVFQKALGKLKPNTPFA
T1 sequence (Q08188 468-693 partner limits assumed): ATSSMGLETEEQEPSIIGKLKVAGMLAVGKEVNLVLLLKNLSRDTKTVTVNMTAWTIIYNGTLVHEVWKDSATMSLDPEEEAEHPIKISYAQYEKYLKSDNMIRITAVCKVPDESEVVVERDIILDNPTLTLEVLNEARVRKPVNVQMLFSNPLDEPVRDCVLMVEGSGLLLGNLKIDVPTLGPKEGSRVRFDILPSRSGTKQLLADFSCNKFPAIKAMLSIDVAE
Description: Selectivity of certain irreversible inhibitors over other members of the transglutaminase family was assessed. […] Inhibitors were tested using a continuous colorimetric assay (Leblanc, A. et al., Biochemistry (2001), 40 (28): 8335-8342) for hTG1 and hTG6 and a commercially available continuous fluorescent assay that utilizes a peptidic FRET quenched substrate (Oertel, K. et al., Anal. Biochem. (2007), 367 (2): 152-158; Király, R. et al., Amino Acids (2016), 48 (1): 31-40) for the other transglutaminases, FXIIIa and hTG3. The rate constant of enzyme inactivation (kobs) for a specific concentration of inhibitor was obtained using Kitz and Wilson conditions (Kitz, R. et al., J. Biol. Chem. (1962), 237: 3245-49). Inhibitor concentrations were adjusted to account for competition with substrates in each enzymatic reaction.
Fluorescence isopeptidase activity assay. The isopeptidase activity of pre-activated TG3a and FXIIIa (purchased from Zedira) was measured via a fluorescence-based assay (Király, R. et al., Amino Acids (2016), 48 (1): 31-40) using the commercially available peptidic FRET quenched probe A101 from Zedira. Briefly, the final concentration in the reaction mixture contained 50 mM Tris (pH 7.0), 10 mM CaCl2, 100 mM NaCl, 2.8 mM TCEP, 50 μM A101 and 14 mM H-Gly-OMe. The reaction was monitored at 25° C. using a BioTek Synergy 4 plate reader (Ex/Em: 318/413 nm).

1321N cells = assay: Agarose colony formation assay, TG2-null 1321N cells; assay type: cell-based, human; settings: 10 μM, 2 weeks
Description: as §1

## C=CC(=O)NCCCC[C@H](NC(=O)OCc1ccccc1)C(=O)NCCOCCOCCNS(=O)(=O)c1cccc2c(N(C)C)cccc12 [NC9]
SCC-13 cells
  viable cell number (trypan blue exclusion): concentration-dependent reduction in viable cell number
U251 cells
  colony growth, U251: significantly reduced the growth
[1]
  growth-retarding effect when TG2 expression is silenced: completely lost
[2]; 20 mg/kg body weight, three times per week, 4 wk
  tumor formation: markedly suppressed tumor formation
[2]; 20 mg/kg, tumors harvested at 4 wk
  integrin and Hippo signaling in tumor extracts: reduced integrin-04 level, and FAK and Src activity, and increased LATS1-P and YAP-P
TG3a; Table 9, Kitz and Wilson conditions
  kobs (10^−3 min^−1), TG3a: 1.01 ± 0.09 10^−3 min^−1
TG3a; from kobs
  selectivity towards hTG2 over hTG3a: about 390 fold
1321N cells
  colony growth, 1321N: no effect
